Laboratory results as given in PubChem BioAssay AID248 (DTP/NCI, 2004).
“And” between values parts separate entries of the source, which are not always exact repeats. Equal entries are not always repeated. Toxic doses and inconclusive results are not listed. No stated cut-off is given here; in the data, active means T/C of 150% or more; inactive means T/C below 125%. Peptide text beside a SMILES is read from it. * marks the point of attachment. Cbz = O=C(OCc1ccccc1)*

Test system: L1210 leukemia ip in BDF1 mice, survival T/C
Test: NCI In Vivo Anticancer Drug Screen. Data for tumor model L1210 Leukemia (intraperitoneal) in B6D2F1 (BDF1) mice
Settings: endpoint: mean survival time, higher = longer survival
How it was run: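 Read-out is survival time, reported as the treated-group measurement over the vehicle-control measurement.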

[1] = dose: 100.0 mg/kg/injection, schedule: Q01DX009 (ip), vehicle: saline with Tween-80
[2] = dose: 100.0 mg/kg/injection, schedule: Q04DX003 (ip), vehicle: saline with Tween-80
[3] = dose: 200.0 mg/kg/injection, schedule: Q01DX009 (ip), vehicle: saline with Tween-80
[4] = dose: 200.0 mg/kg/injection, schedule: Q04DX003 (ip), vehicle: saline with Tween-80
[5] = dose: 50.0 mg/kg/injection, schedule: Q01DX001 (ip), vehicle: carboxymethylcellulose (CMC)
[6] = dose: 100.0 mg/kg/injection, schedule: Q01DX001 (ip), vehicle: carboxymethylcellulose (CMC)
[7] = dose: 200.0 mg/kg/injection, schedule: Q01DX001 (ip), vehicle: carboxymethylcellulose (CMC)
[8] = dose: 400.0 mg/kg/injection, schedule: Q01DX001 (ip), vehicle: carboxymethylcellulose (CMC)
[9] = dose: 100.0 mg/kg/injection, schedule: Q01DX009 (ip), vehicle: saline
[10] = dose: 200.0 mg/kg/injection, schedule: Q01DX009 (ip), vehicle: saline
[11] = dose: 25.0 mg/kg/injection, schedule: Q04DX003 (ip), vehicle: Klucel (hydroxypropylcellulose) (HPC)
[12] = dose: 100.0 mg/kg/injection, schedule: Q04DX003 (ip), vehicle: Klucel (hydroxypropylcellulose) (HPC)
[13] = dose: 200.0 mg/kg/injection, schedule: Q04DX003 (ip), vehicle: Klucel (hydroxypropylcellulose) (HPC)
[14] = dose: 400.0 mg/kg/injection, schedule: Q04DX003 (ip), vehicle: Klucel (hydroxypropylcellulose) (HPC)
[15] = dose: 400.0 mg/kg/injection, schedule: Q04DX003 (ip), vehicle: saline with Tween-80

Measured: T/C

O=C1C(=O)c2ccccc2C([O-])=C1[n+]1ccccc1
inactive: dose: 50.0 mg/kg/injection, schedule: Q01DX009 (ip), vehicle: saline with Tween-80 97 % of control | dose: 50.0 mg/kg/injection, schedule: Q04DX003 (ip), vehicle: saline with Tween-80 103 % of control | [1] 95 % of control | [2] 97 % of control | [3] 93 % of control | [4] 98 % of control

N#CC(=C=[N-])[n+]1ccccc1
inactive: dose: 6.25 mg/kg/injection, schedule: Q01DX009 (ip), vehicle: saline 100 % of control | dose: 12.5 mg/kg/injection, schedule: Q01DX009 (ip), vehicle: saline 100 % of control | dose: 18.8 mg/kg/injection, schedule: Q01DX001 (ip), vehicle: saline 108 % of control | dose: 37.5 mg/kg/injection, schedule: Q01DX001 (ip), vehicle: saline 100 % of control

CCOC(=O)C(=O)NCc1cnccn1
inactive: dose: 100.0 mg/kg/injection, schedule: Q01DX009 (ip), vehicle: water 103 % of control | dose: 100.0 mg/kg/injection, schedule: Q04DX003 (ip), vehicle: water 91 % of control | dose: 200.0 mg/kg/injection, schedule: Q01DX009 (ip), vehicle: water 101 % of control and 107 % of control | dose: 200.0 mg/kg/injection, schedule: Q04DX003 (ip), vehicle: water 94 % of control | dose: 400.0 mg/kg/injection, schedule: Q01DX009 (ip), vehicle: water 94 % of control and 110 % of control | dose: 400.0 mg/kg/injection, schedule: Q04DX003 (ip), vehicle: water 104 % of control

Nc1nc(N)c2[nH]c(CO)nc2n1
inactive: dose: 75.0 mg/kg/injection, schedule: Q01DX001 (ip), vehicle: carboxymethylcellulose (CMC) 110 % of control | dose: 150.0 mg/kg/injection, schedule: Q01DX001 (ip), vehicle: carboxymethylcellulose (CMC) 97 % of control | dose: 300.0 mg/kg/injection, schedule: Q01DX001 (ip), vehicle: carboxymethylcellulose (CMC) 105 % of control

CCCCCCCCCCCC(=O)Nc1ccc(SSc2ccc(NC(=O)CCCCCCCCCCC)cc2)cc1
inactive: [5] 97 % of control | [6] 103 % of control | [7] 90 % of control | [8] 101 % of control

CC(C)OP(=O)(CP(=O)(OC(C)C)OC(C)C)OC(C)C
inactive: [9] 95 % of control | [10] 97 % of control

OC1c2ccccc2-c2ccc(N(Cc3ccccc3)Cc3ccccc3)cc21 (configuration not stated)
inactive: [4] 87 % of control

CCC(CC)(COC(N)=O)COC(N)=O
inactive: [11] 98 % of control | dose: 50.0 mg/kg/injection, schedule: Q04DX003 (ip), vehicle: Klucel (hydroxypropylcellulose) (HPC) 93 % of control | [12] 98 % of control | [13] 95 % of control | [14] 93 % of control

CC(=O)c1ccccc1Cc1cccc2c(Cl)cccc12
inactive: [12] 95 % of control | [13] 100 % of control | [14] 88 % of control

N#CCCCOc1cccc([N+](=O)[O-])c1
inactive: [1] 93 % of control | [3] 102 % of control

O=C1CC(NCCO)C(=O)NN1 (configuration not stated)
inactive: [9] 101 % of control | [10] 97 % of control | dose: 400.0 mg/kg/injection, schedule: Q01DX009 (ip), vehicle: saline 100 % of control

Cc1ccc(OS(=O)(=O)c2cccc([N+](=O)[O-])c2)cc1
inactive: [2] 102 % of control | [4] 97 % of control | [15] 100 % of control

CNc1ccc(/C=N/CCl)cc1
inactive: [2] 92 % of control | [4] 91 % of control | [15] 96 % of control

Clc1ccc(Cl)c(Nc2ccnc(SCc3ccccc3)n2)c1
inactive: dose: 100.0 mg/kg/injection, schedule: Q01DX Z (ip), vehicle: methylcellulose (MC) 92 % of control | dose: 200.0 mg/kg/injection, schedule: Q01DX Z (ip), vehicle: methylcellulose (MC) 88 % of control

C/C(=N\N=C(/C)c1ccc([N+](=O)[O-])cc1)c1ccc([N+](=O)[O-])cc1
inactive: dose: 100.0 mg/kg/injection, schedule: Q04DX002 (ip), vehicle: saline with Tween-80 98 % of control | dose: 200.0 mg/kg/injection, schedule: Q04DX002 (ip), vehicle: saline with Tween-80 103 % of control | dose: 400.0 mg/kg/injection, schedule: Q04DX002 (ip), vehicle: saline with Tween-80 103 % of control

COc1ccc(CN2CCCN(Cc3ccc(OC)cc3OC)C2c2ccc(N(CCCl)CCCl)cc2Cl)c(OC)c1
inactive: [5] 101 % of control | [6] 95 % of control | [7] 98 % of control | [8] 101 % of control

CCOC(=O)CNC(=O)C(CC(C)C)NC(=O)C1CCCN1C(=O)OCc1ccccc1 (stereo not drawn) (Cbz-Pro-Leu-Gly-OEt; configuration not given here)
inactive: dose: 100.0 mg/kg/injection, schedule: Q01DX009 (ip), vehicle: Klucel (hydroxypropylcellulose) (HPC) 105 % of control | [12] 107 % of control | dose: 200.0 mg/kg/injection, schedule: Q01DX009 (ip), vehicle: Klucel (hydroxypropylcellulose) (HPC) 89 % of control | [13] 93 % of control | dose: 400.0 mg/kg/injection, schedule: Q01DX009 (ip), vehicle: Klucel (hydroxypropylcellulose) (HPC) 110 % of control | [14] 98 % of control

CCOP1(=S)OCCO1
inactive: [12] 100 % of control | [13] 103 % of control

Cc1cc(C)nc(/N=N/c2nc(C)cc(C)n2)n1
inactive: dose: 55.0 mg/kg/injection, schedule: Q01DX Z (ip), vehicle: saline 95 % of control | dose: 83.0 mg/kg/injection, schedule: Q01DX Z (ip), vehicle: saline 91 % of control | dose: 125.0 mg/kg/injection, schedule: Q01DX Z (ip), vehicle: saline 103 % of control

NNc1c(F)c(F)c(NN)c(F)c1F
inactive: dose: 6.25 mg/kg/injection, schedule: Q04DX003 (ip), vehicle: Klucel (hydroxypropylcellulose) (HPC) 96 % of control | dose: 12.5 mg/kg/injection, schedule: Q04DX003 (ip), vehicle: Klucel (hydroxypropylcellulose) (HPC) 93 % of control | [11] 95 % of control

COc1cc(/C=N/NC(=O)CC(C)O)ccc1O (configuration not stated)
inactive: dose: 100.0 mg/kg/injection, schedule: Q01DX001 (ip), vehicle: saline 104 % of control | dose: 200.0 mg/kg/injection, schedule: Q01DX001 (ip), vehicle: saline 102 % of control | dose: 400.0 mg/kg/injection, schedule: Q01DX001 (ip), vehicle: saline 104 % of control

CCCCCCCC/C=C\CCCCCCCC(=O)[O][Sn]([CH2]CCC)([CH2]CCC)[O]C(=O)CCCCCCC/C=C\CCCCCCCC
inactive: dose: 1.56 mg/kg/injection, schedule: Q01DX009 (ip), vehicle: Klucel (hydroxypropylcellulose) (HPC) 109 % of control | dose: 3.12 mg/kg/injection, schedule: Q01DX009 (ip), vehicle: Klucel (hydroxypropylcellulose) (HPC) 98 % of control | dose: 6.25 mg/kg/injection, schedule: Q01DX009 (ip), vehicle: Klucel (hydroxypropylcellulose) (HPC) 106 % of control

COc1cccc(CC2=C3CCCN(C(=O)c4ccccc4)C3CCC2=O)c1 (configuration not stated)
inactive: dose: 100.0 mg/kg/injection, schedule: Q01DX009 (ip), vehicle: saline sonified 98 % of control | dose: 200.0 mg/kg/injection, schedule: Q01DX009 (ip), vehicle: saline sonified 96 % of control | dose: 400.0 mg/kg/injection, schedule: Q01DX009 (ip), vehicle: saline sonified 96 % of control
